This is an account of results in US20010011143A1, “Process for preparing phenoxyphenylsulfonyl halides” (priority 1998, published 2001).

What is called melting point is the temperature, or range, at which the solid turns liquid. `O=S(=O)(Oc1ccc(F)cc1)c1ccc(Oc2ccc(F)cc2)cc1` [Example 1, 4-(4-Fluorophenoxy)benzenesulfonic Acid 4-Fluorophenyl Ester]: the melting point was 78 to 83 °C.
